Assay results reported in patent publication US20120277409A1, “METAL-POLYSACCHARIDE CONJUGATES: COMPOSITIONS, SYNTHESIS AND METHODS FOR CANCER THERAPY” (priority 2007, published 2012).
Entries after “also recorded” stand apart in the source; their conditions may differ. Read-outs that look alike come from different tables or passages of the source.

What was measured:
[1] = test system: p21 and cyclin A in 2008.C13 cells; assay: p21 and cyclin A expression (Northern/Western blot); assay type: cell-based, human; conditions: 48 hours of drug exposure
Method: To elucidate the mechanism underlying S-phase arrest caused by CDDP and PC in 2008.C13 cells, the expression of p21 and cyclin A, which are important for cell-cycle regulation in the S phase, was examined in 2008.C13 cells after 48 hours of drug exposure.

[2] = test system: PARP / caspase-3 cleavage in 2008-c13 cells; assay: Western blot of cleaved PARP and cleaved caspase-3; assay type: cell-based, human; conditions: 48 hours; for cleaved PARP expression: 2008-c13 cells; for cleaved caspase-3 expression: 2008.C13 cells
Method: The effect of the platinum-polysaccharide conjugate of Example 1 on tumor cells was analyzed by treating 2008-c13 […] cells with the conjugate, then analyzing the effects on cellular proteins through a Western blot (FIG. 11).
To determine whether apoptosis is induced through a caspase-3-dependent pathway followed by the cleavage of PARP, levels of cleaved caspase-3 and PARP, which form after caspase-3 activation, were determined by Western blot analysis.

[3] = test system: platinum-resistant ovarian cancer cell line 2008-c13; assay: TUNEL assay of apoptosis; assay type: cell-based, human; conditions: 48 hours, compared at each dose, P<0.05
From the text: DNA fragmentation typical of apoptosis was further determined by the TUNEL assay in three independent experiments.

[4] = test system: platinum-resistant ovarian cancer cell line 2008-c13; assay: Flow cytometry (propidium iodide) of apoptosis / sub-G1 fraction; assay type: cell-based, human; conditions: for sub-G1 fraction (hypodiploid cells): 48 hours and 72 hours of drug exposure, same doses
Method: To determine the effectiveness of platinum-polysaccharide conjugate (PC) against platinum-resistant ovarian cancer cells, 2008-c13 cells ([…]) were treated with platinum-polysaccharide conjugate (PC). The cells were trypsinized and centrifuged at 2500 rpm for 5 min. After being washed with 1×PBS two times, cells were fixed with 70% ethanol overnight, washed twice with 1×PBS, and resuspended in 1 mL of propidium iodide (PI) solution (1×10^6 cells/mL). RNase (20 μg/mL) solution was added followed by 1 mL of propydium iodide solution (PI, 50 μg/mL in PBS). Samples were incubated at 37° C. for 15 min, and PI fluorescence was analyzed using a EPIS XL analyzer.
This effect was tested by flow cytometry in the 2008.C13 cell line after 48 hours and 72 hours of drug exposure.

2008.C13 cells = assay: Flow cytometric cell-cycle analysis (S-phase arrest); assay type: cell-based, human; conditions: 48 hours
[5] = In vitro determination of relaxivity (T1, 7.0 T); assay type: physicochemical; conditions: in water, Gd 0.01-0.08 mM
Method: Solutions of Gd-EDTA-chitosan and Gd-DTPA were prepared in water at Gd concentrations of 0.01 mM, 0.02 mM, 0.04 mM and 0.08 mM. Spin lattice (T1) relaxivity was measured at 7.0 T. R1 in mM^−1s^−1 was obtained from linear last-squares determination of the slopes of 1/T1 vs [Gd] plot. R1 was calculated as 3.61 and […] for Gd-DTPA and Gd-EDTA-chitosan, respectively.

[6] = test system: breast cancer cells (13762NF) tumor; assay: Anticancer effect in breast tumor-bearing rat model; assay type: in vivo; conditions: for tumor volume: single dose (Pt 10 mg/kg or chondroitin only)
Method: Female Fischer 344 rats (125-175 g) were inoculated with breast cancer cells (13762NF, 10^6 cells/rat, s.c. in the hind leg). After 15-20 days and a tumor volume of […], the breast tumor-bearing rats were administered either the platinum-chondroitin (Platinum-polysaccharide) conjugate (PC) or chondroitin alone at doses of 10 mg Pt/kg (platinum (IV)-polysaccharide) or 45 mg/kg (chondroitin). Tumor volumes and body weight were recorded daily for sixty days. Tumor volumes were measured as [length (l)×width (w)×thickness (h)]/2. Loss of body weight of 15% is considered a chemical-induced toxic effect. […] After treatment with platinum-polysaccharide conjugate, tumor tissues were dissected and embedded in […]. The tumor tissue was fixed in paraffin, and stained with hematoxylin and eosin for histological examinations.

[7] = test system: platinum-resistant ovarian cancer cells (2008-c13)
Method: All cells were cultured at 37° C. in a humidified atmosphere containing 5% CO2 in RPMI 1640 medium supplemented with 10% fetal bovine serum and glutamine (2 mM). 2008 or 2008.C13 cells were seeded into 96-well plates (4,000 cells/well) and maintained in RPMI 1640 medium for 24 hours. […] Controls were treated with DMSO or PBS. After cells were treated, their growth and viability were determined by incubating the cells for 1 to 2 hours at 37° C. with 20 μL of tetrazolium substrate. Absorbence was measured at 450 nm using a 96-well Synergy HT-microplate reader (Biotek, Winooski, Vt.) The rate of cell growth inhibition was expressed as a percentage as follows: […]. The experiments were repeated separately three times. Methylene tetrazolium (MTT) dye assay determined the amount of viable cells. Cellular protein content was determined by Lowry assay. The drug concentration that inhibits 50% of cell growth (IC-50) was then determined Data are expressed as the percentage differences compared with controls (OD of cells after treatment/OD of cells without treatment).

Row | Compound | cyclin A expression [1] | p21 expression [1] | cleaved PARP expression [2] | cleaved caspase-3 expression [2] | apoptotic cells by TUNEL [3] | sub-G1 fraction (hypodiploid cells) [4] | R1 (spin lattice T1 relaxivity) [5] | tumor volume ([6]; 24 hours) | tumor volume ([6]; 94 hrs) | also measured
1 | N.N.[Cl][Pt][Cl] [CDDP, cis-diamminedichloroplatinum (II), reference compound] | Neither p21 nor cyclin A expression was related to the extent of S-phase arrest | Neither p21 nor cyclin A expression was related to the extent of S-phase arrest | increased from 2.5 μg/mL to 20 μg/mL | expressed in a pattern similar to that of PARP | dose-dependent increase | dose-dependent increase |  |  |  | maximal S-phase arrest (2008.C13 cells; 20 μg/mL): 84.8%
2 | O=C([O-])CN(CCN(CC(=O)[O-])CC(=O)O)CCN(CC(=O)[O-])CC(=O)O.[Gd+3] [Gd-DTPA, reference compound] |  |  |  |  |  |  | 3.61 mM⁻¹ s⁻¹ |  |  | 
3 | Cis-1,2-DACH-dichloro-Pt (IV)-aspartate-chondroitin [PC] | up-regulated after high-dose PC treatment and was maintained at a low level after low-dose PC treatment | up-regulated with maximal S-phase arrest after low-dose PC treatment, but not after high doses; also recorded: increased p21 expression | significantly increased; also recorded: cleaved PARP expression induced by high-dose (20 μg/mL) PC appeared to be lower than that induced by low-dose PC | comparable to that in the CDDP-treated group, except for the lower expression seen at 5 μg/mL | many more cells experiencing apoptosis; also recorded: much higher levels of apoptosis | more pronounced increase in the sub-G1 fraction; also recorded: substantially more sub-G1 cells than did CDDP |  | 5.2661 cm^3 | 0.8782 cm^3 | effect against breast tumor growth (in words) ([6]; 10 mg Pt/kg): effective in vivo against breast tumor growth; tumor necrosis (H & E histology) ([6]; 94 hrs post-administration): Extensive necrosis; apoptotic effect by flow cytometry ([4]; 2.5 and 5 μg/mL, compared to cisplatin): significantly enhanced the apoptotic effect; S-phase arrest (2008.C13 cells; 2.5 μg/mL): 90.3%; S-phase arrest (2008.C13 cells; 5 μg/mL): 90.1%; enhancement of tumor killing compared with cisplatin ([7]; 2.5 μg/mL, 48 hours): 5.9 times; enhancement of tumor killing compared with cisplatin ([7]; 2.5 μg/mL, 72 hours): 9.3 times; enhancement of tumor killing compared with cisplatin ([7]; 5 μg/mL, 48 hours): 4.6 times; enhancement of tumor killing compared with cisplatin ([7]; 5 μg/mL, 72 hours): 1.5 times; cell growth inhibition (in words) ([7]; low doses): significantly inhibit cell growth
4 | Gd-EDTA-chitosan |  |  |  |  |  |  | 9.59 mM⁻¹ s⁻¹ |  |  | 
5 | chondroitin [reference compound] |  |  |  |  |  |  |  | 5.2591 cm^3 | 14.3622 cm^3 | 
